Results from patent US9315563B2, “Peptides that inhibit angiotensin converting enzyme and peptides with antioxidant activity purified from ovotransferrin and methods of producing and using the same” (The Governors of the University of Alberta, priority 2009, dated 2016).
Where “and” joins values, the source holds several entries; their conditions need not be identical. Identical values can stand only once.

Assay: ORAC-FL assay (oxygen radical absorbance capacity)
Conditions: for ORAC: chemically synthesized peptides, Trolox equivalent; for Change of antioxidant activity on extension of the peptide: ORAC, relative to GWNI, WNIP or AGWNIP; for ORAC value (sign, in words): suggesting prooxidant activity
Procedure: Briefly, 80 mM AAPH and 200 nM fluorescein in 75 mM phosphate buffer at pH 7.4 were prepared for each experiment. For each run, 20 μL of antioxidant, and 80 μL of phosphate buffer (or 100 μL of Trolox standard solutions at final concentrations of 1 to 8 μM) were placed in wells of a 96-well microplate, followed by addition of 50 μL of the fluorescein solution. The mixture was preincubated for 15 min at 37° C. 50 μL of AAPH solution was added rapidly using a multichannel pipet. The microplate was immediately placed in a Fluoroskan Ascent microplate reader (Thermo Electron Corporation) with 485-P excitation and 538-P emission filters and the fluorescence recorded every minute for 100 min. All readings were recorded using Fluoroskan Ascent software. The area under the curve of fluorescence decay (AUC) was calculated using Graphpad prism software (trial version). Regression equations between AUC and antioxidant concentrations were calculated for all the samples. The ORAC value was calculated by dividing the slope of sample regression curve by the slope of Trolox regression curve. Final ORAC values were expressed as μmol of Trolox equivalent/mg of protein or peptide.

Compound | ORAC | Change of antioxidant activity on extension of the peptide | ORAC value (sign, in words)
Oc1cc(O)c2c(c1)O[C@H](c1ccc(O)c(O)c1)[C@@H](O)C2 [(+)-catechin, reference compound] | 14.9 μmol/μmol | – | –
AGWNI | 8.55 ± 0.60 μmol/μmol | decreased the antioxidant activity by half | –
AGWNIP | 7.64 ± 0.83 μmol/μmol | decreased the antioxidant activity by half | –
AGWNIPIGT | 5.25 ± 0.26 μmol/μmol | did not decrease the antioxidant activity further | –
AIEWEGIESGSVEQA | 0.95 ± 0.46 μmol/μmol | – | –
GWNI | 13.90 μmol/μmol and 13.90 ± 1.05 μmol/μmol | – | –
GWNIP | 6.19 ± 0.64 μmol/μmol | decreased the antioxidant activity by half | –
IAAEVYEHTEGSTTSY | 2.39 ± 0.17 μmol/μmol | – | –
IANNEADAISLDGGQVFEAG | 0.43 ± 0.05 μmol/μmol | – | –
IEWEGIESGSVEQA | 0.73 ± 0.16 μmol/μmol | – | –
LGFEY | 9.79 ± 0.55 μmol/μmol | – | –
LGFEYY | 7.25 ± 0.71 μmol/μmol | – | –
LSKAQSDFG | −1.40 ± 0.69 μmol/μmol | – | negative ORAC values
LVEKGDVAFI | −0.07 ± 0.03 μmol/μmol | – | negative ORAC values
PIAAEVYEHTEGSTTSY | 1.68 ± 0.03 μmol/μmol | – | –
VIPMGL | 2.89 ± 0.15 μmol/μmol | – | –
WNIP | 15.47 μmol/μmol and 15.47 ± 0.68 μmol/μmol | – | –
